Reference: patent US7647217B2, “Structure of the farnesoid X receptor ligand binding domain and methods of use therefor” (The Salk Institute for Biological Studies, priority 2002, dated 2010)
“And” between values parts separate entries of the source, which are not always exact repeats. Identical values can stand only once.

Key:
mouse FXR = target: T1, mouse FXR (Mus musculus, UniProt Q60641); experiment: CV-1 reporter gene assay, mFXR/hRXR with TK minimal, TK-ECRE*6 or TK-ER8*2 luciferase reporter; type: cell-based; conditions: for activation of ECRE FXRE reporter: CV-1, TK-ECRE*6; for activation of ER-8 FXRE reporter: CV-1, TK-ER8*2; for concentration at which maximal activity is achieved / activity on FXRE reporters: ECRE and ER-8 reporters
T1 construct: expressed in transfected cells; host or cells: CV-1 (monkey)
T1 sequence (Q60641 1-488): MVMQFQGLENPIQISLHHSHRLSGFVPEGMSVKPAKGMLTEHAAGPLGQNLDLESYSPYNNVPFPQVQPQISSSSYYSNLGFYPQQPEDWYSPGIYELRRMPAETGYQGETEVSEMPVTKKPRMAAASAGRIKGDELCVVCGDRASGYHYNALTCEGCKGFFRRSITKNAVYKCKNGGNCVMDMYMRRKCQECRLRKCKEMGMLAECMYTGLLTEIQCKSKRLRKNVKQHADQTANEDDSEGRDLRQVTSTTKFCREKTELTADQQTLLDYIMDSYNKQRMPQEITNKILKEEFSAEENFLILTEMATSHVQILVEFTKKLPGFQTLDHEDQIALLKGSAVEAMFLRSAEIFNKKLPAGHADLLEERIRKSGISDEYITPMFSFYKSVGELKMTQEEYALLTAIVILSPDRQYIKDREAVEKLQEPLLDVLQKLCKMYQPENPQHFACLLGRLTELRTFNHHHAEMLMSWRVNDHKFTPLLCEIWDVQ
T1 sequence (P19793 1-462 partner): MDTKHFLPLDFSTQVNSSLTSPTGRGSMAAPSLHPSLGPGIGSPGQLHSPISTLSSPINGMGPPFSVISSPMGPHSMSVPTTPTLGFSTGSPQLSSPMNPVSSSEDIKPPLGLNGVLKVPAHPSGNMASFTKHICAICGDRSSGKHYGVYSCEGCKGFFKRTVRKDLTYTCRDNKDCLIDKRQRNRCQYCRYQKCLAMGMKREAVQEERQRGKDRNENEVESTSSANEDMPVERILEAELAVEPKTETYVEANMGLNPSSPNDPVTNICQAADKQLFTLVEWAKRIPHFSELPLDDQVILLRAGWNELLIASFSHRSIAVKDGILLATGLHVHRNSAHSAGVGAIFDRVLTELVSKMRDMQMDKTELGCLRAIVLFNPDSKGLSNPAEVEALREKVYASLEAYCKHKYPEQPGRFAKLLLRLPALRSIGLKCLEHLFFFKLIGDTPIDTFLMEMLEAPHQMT
Experimental: FIGS. 2A-2F collectively show the results of ligand activation of CV-1 cells co-transfected with FXR constructs pCMX-mFXR and pCMX-hRXR and a luciferase reporter gene containing various promoters as follows: FIG. 2A with a minimal TK promoter, FIG. 2B with a TK-ECRE*6 promoter, FIG. 2C with a TK-ER8*2 promoter, FIG. 2D with HIBABP promoter, FIG. 2E with a hPLTP promoter, or FIG. 2 with a FhMRP-2 promoter.
(§1) For transfection of these constructs, monkey CV-1 HEPG2 and HEK293T cells were grown in DMEM supplemented with 10% FBS, 50 U/ml penicillin G, and 50 μg/ml streptomycin sulfate at 37° C. in 7% CO2. CV-1 cells (60%-70% confluence, 48-well plate) were cotransfected with 16.6 ng of the appropriate expression vector, 100 ng of reporter plasmid, and 100 ng of pCMX-LacZ in 200 μl of DMEM containing 10% FBS by the N-[1-(2,3-dioleoyloxy)propyl]-N,N,N-trimethylammonium methylsulfate (DOTAP)-mediated procedure. After 24 hr, the medium was replaced, and cells were harvested and assayed for luciferase activity 36-48 hr after transfection. The luciferase activity was normalized to the level of β-galactosidase activity. Each transfection was performed in triplicate and repeated at least three times.
The ability of these compounds to activate the receptor in a number of different cell-based reporter gene assays was then determined. […] CV-1 cells were transiently transfected with an expression plasmid for mouse FXR and human RXR with a thymidine kinase (minimal promoter reporter vector containing either no copies or six copies of the ecdysone response element (ECRE), a well-characterized FXR response element (FXRE). In addition, two copies of the recently identified FXRE everted repeat separated by 8 nucleotides (ER-8) was also studied (see, for example, Laffitte et al. (2000). Identification of the DNA binding specificity and potential target genes for the farnesoid X-activated receptor. J Biol. Chem. 275(14), 10638-47; Kast et al. (2002). Regulation of multidrug resistance-associated protein 2 (ABCC2) by the nuclear receptors pregnane X receptor, farnesoid X-activated receptor, and constitutive androstane receptor. J Biol Chem. 277(4), 2908-15).
Similar results were found in a variety of different cell types including liver cells (HEPG2) and kidney cells (HEK 293).

FXR = target: T2, FXR (Mus musculus, UniProt Q60641); experiment: Cell-based screen: full-length FXR expression vector co-transfected with hormone response element luciferase reporter; conditions: FXR agonist activity
T2 construct: expression vector containing the full-length FXR receptor; expressed in transfected cells
T2 sequence (Q60641 1-488): T1 sequence (Q60641 1-488)
T2 sequence (P19793 1-462 partner): T1 sequence (P19793 1-462 partner)
Experimental: as §1
To discover novel small molecule ligands for FXR, a constructed combinatorial library of approximately 10 000 benzopyran compounds was screened using a cell-based assay in a 384 well format (Nicolaou et al. (2000). Natural product-like combinatorial libraries based on privileged structures. 1. General principles and solid-phase synthesis of benzopyrans. J. Am. Chem. Soc. 122, 9939-9953; Natural product-like combinatorial libraries based on privileged structures. 2. Construction of a 10000-membered benzopyran library by directed split-and-pool chemistry using nanokans and optical encoding. J. Am. Chem. Soc. 122, 9954-9967; and Natural product-like combinatorial libraries based on privileged structures. 3. The “libraries from libraries” principle for diversity enhancement of benzopyran libraries. J. Am. Chem. Soc. 122, 9968-9976). This cell-based screen was based on the co-transfection of an expression vector containing the full-length FXR receptor with a reporter vector. The reporter vector contains a hormone response element under a minimal eukaryotic promoter driving a luciferase reporter gene. […] Lead compounds were re-tested and checked for cross-reactivity for the retinoid X receptor (RXR), the heterodimeric partner of FXR. None of the identified compounds had the ability to bind or activate RXR.
Systematic optimization of regions I and II of the prototypical structure through multiple rounds of screening using smaller “focused” chemical libraries defined the requisite features of these domains for high affinity binding to FXR. […] This intelligence gathering was then used to design and synthesize on a solid support a focused library of 94 new compounds for further optimization.

Row | SMILES | activation of ECRE FXRE reporter (mouse FXR) | activation of ER-8 FXRE reporter (mouse FXR) | concentration at which maximal activity is achieved (mouse FXR) | activity on minimal TK promoter (mouse FXR; reporter without FXRE) | EC50 (FXR) | activity on FXRE reporters (mouse FXR)
1 | CC(C)c1onc(-c2c(Cl)cccc2Cl)c1COc1ccc(/C=C/c2cccc(C(=O)O)c2)c(Cl)c1 [GW4064, reference compound] | 100 fold | 4 fold | 1 µM | less than 2 fold | ~90 nM and 80 nM | 
2 | COC(=O)/C=C/c1cccc(N(Cc2ccc(-c3ccccc3OC)cc2)C(=O)C(C)C)c1 [SRI-1] |  |  |  |  | 377 nM | little or no activity
3 | COC(=O)/C=C/c1cccc(N(Cc2ccc(-c3ccc(C(C)(C)C)cc3)cc2)C(=O)C(C)C)c1 [SRI-2] |  |  |  |  | 343 nM | little or no activity
4 | COC(=O)/C=C/c1cccc(N(Cc2ccc(-c3ccc(N(C)C)cc3)cc2)C(=O)C2CCCCC2)c1 [fexaramine] | 100 fold | 4 fold | 1 µM |  | 25 nM | 
5 | COC(=O)/C=C/c1cccc(N(Cc2ccc(/C=C/c3ccccc3)cc2)C(=O)C2CCCCC2)c1 [fexarene] | 100 fold | 4 fold | 1 µM |  | 36 nM | 
6 | COC(=O)/C=C/c1cccc(N(Cc2ccc(-c3ccc4c(c3)OCO4)cc2)C(=O)C2CCCCC2)c1 [fexarine] | 100 fold | 4 fold | 1 µM |  | 38 nM | 
